Measured values from patent US20230085307A1, “PYRIDAZINONE COMPOUND AND HERBICIDE” (NISSAN CHEMICAL CORPORATION, priority 2019, published 2023).

Assays:
southern crabgrass = test: Test Example 4: herbicidal effect by soil treatment (Table 19, symbol F); format: in vivo, southern crabgrass (Digitaria ciliaris)
In short: (§1)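 Pre-emergence style soil spray: seeds under ~1.5 cm sterilized diluvial soil received a uniform coat of emulsion diluted to the predetermined herbicide amount. Greenhouse 25–30° C; readout at week three on previously defined criteria.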

blackgrass = test: Test Example 4: herbicidal effect by soil treatment (Table 19, symbol J); format: in vivo, blackgrass (Alopecurus myosuroides)
In short: as §1

Italian ryegrass = test: Test Example 4: herbicidal effect by soil treatment (Table 19, symbol K); format: in vivo, Italian ryegrass (Lolium multiflorum)
In short: as §1

oval-leafed pondweed = test: Test Example 2: herbicidal activity, application during weed generation under submerged conditions (Table 17, symbol C); format: in vivo, oval-leafed pondweed (Monochoria vaginalis); conditions: AAH 320 g/ha; application during weed generation, submerged conditions
In short: (§2)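 In this pot test, flooded alluvial soil (water depth 4 cm) holds all three species sown as a mixture. Once seedlings have one to two leaves, the compound's emulsion, thinned with water to the intended dose, is poured on the water; grading follows after three weeks on the earlier criteria.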

lambsquarters [1] = test: Test Example 5: herbicidal effect by foliage application, plastic box (Table 20, symbol O); format: in vivo, lambsquarters (Chenopodium album); conditions: foliage application, 320 g/ha
In short: (§3)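 Plants were sown into sterilized diluvial soil under about 1.5 cm cover and kept in a greenhouse at 25° C. to 30° C. Fourteen days on, foliage received an even spray of the diluted emulsion. Herbicidal or crop effect was judged three weeks afterwards.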

Japanese bulrush = test: Test Example 1: herbicidal activity, application before weed generation under submerged conditions (Table 16, symbol B); format: in vivo, Japanese bulrush (Schoenoplectus juncoides); conditions: 320 g/ha applied herbicide
In short: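 Submerged Wagner pots (alluvial soil, 4 cm water) sown with weed seeds and planted with 2.5-leaf rice seedlings; emulsifiable concentrate diluted in water applied to water surface on sowing day. Held in greenhouse at 25-30 °C; injury scored 0-5 by herbicidal rate after three weeks.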

persian speedwell [2] = test: Test Example 5: herbicidal effect by foliage application, plastic box (Table 20, symbol R); format: in vivo, Persian speedwell (Veronica persica); conditions: foliage application, 320 g/ha
In short: as §3

wild oat [3] = test: Test Example 4: herbicidal effect by soil treatment (Table 19, symbol I); format: in vivo, wild oat (Avena fatua)
In short: as §1

windgrass [4] = test: Test Example 4: herbicidal effect by soil treatment (Table 19, symbol L); format: in vivo, windgrass (Apera spica-venti)
In short: as §1

windgrass [5] = test: Test Example 5: herbicidal effect by foliage application, plastic box (Table 20, symbol L); format: in vivo, windgrass (Apera spica-venti); conditions: foliage application, 320 g/ha
In short: as §3

late watergrass = test: Test Example 2: herbicidal activity, application during weed generation under submerged conditions (Table 17, symbol A); format: in vivo, late watergrass (Echinochloa oryzicola); conditions: AAH 320 g/ha; application during weed generation, submerged conditions
In short: as §2

lambsquarters [6] = test: Test Example 4: herbicidal effect by soil treatment (Table 19, symbol O); format: in vivo, lambsquarters (Chenopodium album)
In short: as §1

wild oat [7] = test: Test Example 5: herbicidal effect by foliage application, plastic box (Table 20, symbol I); format: in vivo, wild oat (Avena fatua); conditions: foliage application, 320 g/ha
In short: as §3

Chinese sprangletop = test: Test Example 3: herbicidal effect by foliage application, Wagner pot (Table 18, symbol D); format: in vivo, chinese sprangletop (Leptochloa chinensis); conditions: for herbicidal effect on D (Chinese sprangletop), rating 0-5: 320 g/ha
In short: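 Plants were sown in alluvial soil held under 0.1–0.5 cm standing water and grown 14 days in a greenhouse at 25–30 °C. An emulsifiable formulation, water-diluted to the set dose, was then sprayed onto the foliage, and effects were scored three weeks later using previously defined criteria.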

velvetleaf = test: Test Example 5: herbicidal effect by foliage application, plastic box (Table 20, symbol M); format: in vivo, velvetleaf (Abutilon theophrasti); conditions: foliage application, 320 g/ha
In short: as §3

persian speedwell [8] = test: Test Example 4: herbicidal effect by soil treatment (Table 19, symbol R); format: in vivo, Persian speedwell (Veronica persica)
In short: as §1

barnyard grass = test: Test Example 5: herbicidal effect by foliage application, plastic box (Table 20, symbol H); format: in vivo, barnyard grass (Echinochloa crus-galli); conditions: foliage application, 320 g/ha
In short: as §3

[9] = amount of applied herbicide 320 g/ha
[10] = evaluated three weeks after application

## Cc1nn(C)c(=O)c(-c2c(-c3ccc(SC(C)C)cc3)sc3ccc(F)cc23)c1O [2-252]
Southern crabgrass; [9]
  herbicidal effect on F: southern crabgrass: 2 (Herbicidal rate of 20% or more and less than 40%)
blackgrass; [9]
  herbicidal effect on J: blackgrass: 0 (Herbicidal rate of 5% or less (almost no effect))
Italian ryegrass; [9]
  herbicidal effect on K: Italian ryegrass: 3 (Herbicidal rate of 40% or more and less than 70%)
oval-leafed pondweed
  herbicidal effect rating, C: oval-leafed pondweed: 2 (Herbicidal rate of 20% or more and less than 40%)
Lambsquarters [1]; [10]
  herbicidal effect on O: lambsquarters (criteria 0-5): 5 (Herbicidal rate of 90% or more (almost completely withered))
Japanese bulrush
  Herbicidal effect on B: Japanese bulrush (grade 0-5): 2 (Herbicidal rate of 20% or more and less than 40%)
Persian speedwell [2]; [10]
  herbicidal effect on R: persian speedwell (criteria 0-5): 5 (Herbicidal rate of 90% or more (almost completely withered))
Wild oat [3]; [9]
  herbicidal effect on I: wild oat: 0 (Herbicidal rate of 5% or less (almost no effect))
Windgrass [4]; [9]
  herbicidal effect on L: windgrass: 0 (Herbicidal rate of 5% or less (almost no effect))
Windgrass [5]; [10]
  herbicidal effect on L: windgrass (criteria 0-5): 5 (Herbicidal rate of 90% or more (almost completely withered))
Late watergrass
  herbicidal effect rating, A: late watergrass: 4 (Herbicidal rate of 70% or more and less than 90%)
Lambsquarters [6]; [9]
  herbicidal effect on O: lambsquarters: 4 (Herbicidal rate of 70% or more and less than 90%)
Wild oat [7]; [10]
  herbicidal effect on I: wild oat (criteria 0-5): 4 (Herbicidal rate of 70% or more and less than 90%)
Chinese sprangletop; [9]
  herbicidal effect on D: Chinese sprangletop: 5 (Herbicidal rate of 90% or more (almost completely withered))
velvetleaf; [10]
  herbicidal effect on M: velvetleaf (criteria 0-5): 5 (Herbicidal rate of 90% or more (almost completely withered))
Persian speedwell [8]; [9]
  herbicidal effect on R: persian speedwell: 5 (Herbicidal rate of 90% or more (almost completely withered))
Barnyard grass; [10]
  herbicidal effect on H: barnyard grass (criteria 0-5): 5 (Herbicidal rate of 90% or more (almost completely withered))

## COCCOCOc1c(C)nn(C)c(=O)c1-c1c(-c2ccc(OCCSC)cc2)sc2ccccc12 [1-221]
Southern crabgrass; AAH 320 g/ha
  F: southern crabgrass, herbicidal effect rating: 2 (Herbicidal rate of 20% or more and less than 40%)
blackgrass; AAH 320 g/ha
  J: blackgrass, herbicidal effect rating: 0 (Herbicidal rate of 5% or less (almost no effect))
Italian ryegrass; AAH 320 g/ha
  K: Italian ryegrass, herbicidal effect rating: 5 (Herbicidal rate of 90% or more (almost completely withered))
oval-leafed pondweed
  herbicidal effect rating, C: oval-leafed pondweed: 3 (Herbicidal rate of 40% or more and less than 70%)
Lambsquarters [1]; 3 weeks after application
  effect on lambsquarters (O): 5 (Herbicidal rate of 90% or more (almost completely withered))
Japanese bulrush
  Herbicidal effect on B: Japanese bulrush (grade 0-5): 3 (Herbicidal rate of 40% or more and less than 70%)
Persian speedwell [2]; 3 weeks after application
  effect on persian speedwell (R): 5 (Herbicidal rate of 90% or more (almost completely withered))
Wild oat [3]; AAH 320 g/ha
  I: wild oat, herbicidal effect rating: 0 (Herbicidal rate of 5% or less (almost no effect))
Windgrass [4]; AAH 320 g/ha
  L: windgrass, herbicidal effect rating: 0 (Herbicidal rate of 5% or less (almost no effect))
Windgrass [5]; 3 weeks after application
  effect on windgrass (L): 5 (Herbicidal rate of 90% or more (almost completely withered))
Late watergrass
  herbicidal effect rating, A: late watergrass: 5 (Herbicidal rate of 90% or more (almost completely withered))
Lambsquarters [6]; AAH 320 g/ha
  O: lambsquarters, herbicidal effect rating: 4 (Herbicidal rate of 70% or more and less than 90%)
Wild oat [7]; 3 weeks after application
  effect on wild oat (I): 5 (Herbicidal rate of 90% or more (almost completely withered))
Chinese sprangletop
  herbicidal effect on D (Chinese sprangletop), rating 0-5: 5 (Herbicidal rate of 90% or more (almost completely withered))
velvetleaf; 3 weeks after application
  effect on velvetleaf (M): 5 (Herbicidal rate of 90% or more (almost completely withered))
Persian speedwell [8]; AAH 320 g/ha
  R: persian speedwell, herbicidal effect rating: 5 (Herbicidal rate of 90% or more (almost completely withered))
Barnyard grass; 3 weeks after application
  effect on barnyard grass (H): 5 (Herbicidal rate of 90% or more (almost completely withered))

## Cc1nn(C)c(=O)c(-c2c(-c3ccc4c(c3)OCO4)sc3ccccc23)c1O [1-087]
Southern crabgrass; [9]
  herbicidal effect rating, F: southern crabgrass: 2 (Herbicidal rate of 20% or more and less than 40%)
blackgrass; [9]
  herbicidal effect rating, J: blackgrass: 0 (Herbicidal rate of 5% or less (almost no effect))
Italian ryegrass; [9]
  herbicidal effect rating, K: Italian ryegrass: 3 (Herbicidal rate of 40% or more and less than 70%)
oval-leafed pondweed
  herbicidal effect rating, C: oval-leafed pondweed: 3 (Herbicidal rate of 40% or more and less than 70%)
Lambsquarters [1]; three weeks after application
  herbicidal effect grade, O: lambsquarters: 3 (Herbicidal rate of 40% or more and less than 70%)
Japanese bulrush
  Herbicidal effect on B: Japanese bulrush (grade 0-5): 1 (Herbicidal rate of 5% or more and less than 20%)
Persian speedwell [2]; three weeks after application
  herbicidal effect grade, R: persian speedwell: 5 (Herbicidal rate of 90% or more (almost completely withered))
Wild oat [3]; [9]
  herbicidal effect rating, I: wild oat: 0 (Herbicidal rate of 5% or less (almost no effect))
Windgrass [4]; [9]
  herbicidal effect rating, L: windgrass: 0 (Herbicidal rate of 5% or less (almost no effect))
Windgrass [5]; three weeks after application
  herbicidal effect grade, L: windgrass: 0 (Herbicidal rate of 5% or less (almost no effect))
Late watergrass
  herbicidal effect rating, A: late watergrass: 2 (Herbicidal rate of 20% or more and less than 40%)
Lambsquarters [6]; [9]
  herbicidal effect rating, O: lambsquarters: 5 (Herbicidal rate of 90% or more (almost completely withered))
Wild oat [7]; three weeks after application
  herbicidal effect grade, I: wild oat: 1 (Herbicidal rate of 5% or more and less than 20%)
Chinese sprangletop
  herbicidal effect on D (Chinese sprangletop), rating 0-5: 3 (Herbicidal rate of 40% or more and less than 70%)
velvetleaf; three weeks after application
  herbicidal effect grade, M: velvetleaf: 4 (Herbicidal rate of 70% or more and less than 90%)
Persian speedwell [8]; [9]
  herbicidal effect rating, R: persian speedwell: 5 (Herbicidal rate of 90% or more (almost completely withered))
Barnyard grass; three weeks after application
  herbicidal effect grade, H: barnyard grass: 4 (Herbicidal rate of 70% or more and less than 90%)

## COc1ccc(-c2sc3ccc(F)cc3c2-c2c(O)c(C)nn(C)c2=O)cc1OC [2-088]
Southern crabgrass; 320 g/ha
  herbicidal effect rating, F: southern crabgrass: 1 (Herbicidal rate of 5% or more and less than 20%)
blackgrass; 320 g/ha
  herbicidal effect rating, J: blackgrass: 0 (Herbicidal rate of 5% or less (almost no effect))
Italian ryegrass; 320 g/ha
  herbicidal effect rating, K: Italian ryegrass: 3 (Herbicidal rate of 40% or more and less than 70%)
oval-leafed pondweed
  herbicidal effect rating, C: oval-leafed pondweed: 2 (Herbicidal rate of 20% or more and less than 40%)
Lambsquarters [1]; [10]
  herbicidal effect on O: lambsquarters: 4 (Herbicidal rate of 70% or more and less than 90%)
Japanese bulrush
  Herbicidal effect on B: Japanese bulrush (grade 0-5): 2 (Herbicidal rate of 20% or more and less than 40%)
Persian speedwell [2]; [10]
  herbicidal effect on R: persian speedwell: 5 (Herbicidal rate of 90% or more (almost completely withered))
Wild oat [3]; 320 g/ha
  herbicidal effect rating, I: wild oat: 0 (Herbicidal rate of 5% or less (almost no effect))
Windgrass [4]; 320 g/ha
  herbicidal effect rating, L: windgrass: 0 (Herbicidal rate of 5% or less (almost no effect))
Windgrass [5]; [10]
  herbicidal effect on L: windgrass: 0 (Herbicidal rate of 5% or less (almost no effect))
Late watergrass
  herbicidal effect rating, A: late watergrass: 3 (Herbicidal rate of 40% or more and less than 70%)
Lambsquarters [6]; 320 g/ha
  herbicidal effect rating, O: lambsquarters: 4 (Herbicidal rate of 70% or more and less than 90%)
Wild oat [7]; [10]
  herbicidal effect on I: wild oat: 0 (Herbicidal rate of 5% or less (almost no effect))
Chinese sprangletop
  herbicidal effect on D (Chinese sprangletop), rating 0-5: 3 (Herbicidal rate of 40% or more and less than 70%)
velvetleaf; [10]
  herbicidal effect on M: velvetleaf: 5 (Herbicidal rate of 90% or more (almost completely withered))
Persian speedwell [8]; 320 g/ha
  herbicidal effect rating, R: persian speedwell: 3 (Herbicidal rate of 40% or more and less than 70%)
Barnyard grass; [10]
  herbicidal effect on H: barnyard grass: 3 (Herbicidal rate of 40% or more and less than 70%)
